What all share (format): cell-based
For assay [1], the target named is T1, hNPY2R (Homo sapiens, UniProt P49146).
T1 sequence (P49146 1-381): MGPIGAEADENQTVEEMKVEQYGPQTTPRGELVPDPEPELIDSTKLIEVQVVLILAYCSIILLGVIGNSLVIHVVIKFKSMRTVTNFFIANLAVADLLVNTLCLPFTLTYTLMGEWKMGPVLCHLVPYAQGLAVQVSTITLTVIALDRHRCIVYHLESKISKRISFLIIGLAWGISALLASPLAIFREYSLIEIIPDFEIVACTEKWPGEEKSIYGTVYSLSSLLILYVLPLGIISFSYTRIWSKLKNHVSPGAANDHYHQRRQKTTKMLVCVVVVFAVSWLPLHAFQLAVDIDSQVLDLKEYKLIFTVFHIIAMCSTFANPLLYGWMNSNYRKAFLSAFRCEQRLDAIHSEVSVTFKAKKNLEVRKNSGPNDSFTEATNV
Put plainly: CaFlux Assay (FLIPR), Y2R. Also on record: expressed in transfected cells; host or cells: HEK-293 stably expressing G protein chimera Gaqi9.
Protocol: Hek-293 cells were stably transfected with the G protein chimera Gaqi9 and the hygromycin-B resistance gene were further transfected with the human NPY2 receptor and G418 antibiotic selection. Following selection in both hygromycin-B and G418, individual clones were assayed for their response to PYY. The transfected cells were cultured in DMEM medium supplemented with 10% fetal bovine serum, 50 μg/mL hygromycin-B 2 mM glutamine, 100 U/mL penicillin, 100 μg/mL streptomycin and 250 μg/mL G418. Cells are harvested with trypsin-EDTA and counted using ViaCount reagent. The cell suspension volume is adjusted to 4.8×10^5 cells/mL with complete growth media. Aliquots of 25 μL are dispensed into 384 well Poly-D Lysine coated black/clear microplates (Falcon) and the microplates were placed in a 37° C. CO2 incubator overnight. Loading Buffer (Calcium-3 Assay Kit, Molecular Devices) was prepared by dissolving the contents of one vial (Express Kit) into 1000 mL Hank's Balanced Salt Solution containing 20 mM HEPES and 5 mM probenecid. Aliquots of 25 μL of diluted dye were dispensed into the cell plates and the plates are then incubated for 1 hour at 37° C. During the incubation, test compounds were prepared at 3.5× the desired concentration in HBSS (20 mM HEPES)/0.05% BSA/1% DMSO and transferred to a 384 well plate for use on FLIPR. After incubation, both the cell and compound plates were brought to the FLIPR and 20 μL of the diluted compounds were transferred to the cell plates by the FLIPR. During the assay, fluorescence readings were taken simultaneously from all 384 wells of the cell plate every 1.5 seconds. Five readings were taken to establish a stable baseline, and then 20 μL of sample was rapidly (30 μL/sec) and simultaneously added to each well of the cell plate. The fluorescence was continuously monitored before, during and after sample addition for a total elapsed time of 100 seconds. Responses (increase in peak fluorescence) in each well following addition were determined. The initial fluorescence reading from each well, prior to ligand stimulation, was used as a zero baseline value for the data from that well. The responses are expressed as % of maximal response of the positive control.

The target of another assay is Y4R (Homo sapiens, UniProt P50391). The experiment in a line: CaFlux Assay (FLIPR), Y4R.
For a further assay, the target named is T2, Y5R (Homo sapiens, UniProt Q15761).
T2 sequence (Q15761 1-445): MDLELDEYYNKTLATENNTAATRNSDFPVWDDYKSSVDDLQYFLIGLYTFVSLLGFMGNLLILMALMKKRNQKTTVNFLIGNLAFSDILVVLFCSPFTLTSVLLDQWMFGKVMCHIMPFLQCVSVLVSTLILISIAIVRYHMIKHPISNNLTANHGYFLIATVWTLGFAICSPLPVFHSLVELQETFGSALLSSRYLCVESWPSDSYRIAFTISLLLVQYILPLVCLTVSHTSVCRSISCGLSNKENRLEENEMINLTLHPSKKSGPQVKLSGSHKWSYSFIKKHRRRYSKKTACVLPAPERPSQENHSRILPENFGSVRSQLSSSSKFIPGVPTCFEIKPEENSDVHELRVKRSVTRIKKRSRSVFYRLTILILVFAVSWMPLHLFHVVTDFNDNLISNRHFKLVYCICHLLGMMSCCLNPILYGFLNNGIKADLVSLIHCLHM
The experiment in a line: CaFlux Assay (FLIPR), Y5R.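 For Emax: percent of the maximal response of the positive control agonist.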

The target of assay [2] is T1, hNPY2R. Put plainly: cAMP Agonist Assay, HEK293/hNPY2R cells. More on the design: expressed in transfected cells; host or cells: HEK293/hNPY2R (G418 selection).
Protocol: On the first day, medium was discarded, and the monolayer cells were washed with 10 mL PBS per flask (T225). […] The flask was gently tapped and the cell suspension was pooled. Each flask was rinsed with 10 mL plating medium and centrifuged at 1000 rpm for 5 min. The suspension was pooled and counted. The suspension was resuspended in plating medium at a density of 2.0×10^5 cells/mL for HEK293/hNPY2R. 50 microliters of cells (HEK293/hNPY2R-10,000 cells/well) were transferred into the 384-well plate using Multi-drop dispenser. The plates were incubated at 37° C. overnight. […] The media and reagents were allowed to come to room temperature. Before the dilutions were prepared, the stock solution of stimulating compound in dimethyl sulphoxide (DMSO, Sigma, cat #D2650) was allowed to warm up to 32 C for 5-10 min. […] The cell medium was tapped off with a gentle inversion of the cell plate on a paper towel. 50 μL of stimulation medium was placed per well (each concentration done in four replicates). The plates were incubated at room temperature for 30 min, and the cells were checked under a microscope for toxicity. After 30 minutes of treatment, the stimulation media was discarded and 50 mL/well of Assay Lysis Buffer (provided in the Tropix kit) was added. The plates were incubated for 45 min@37° C. 20 μL of the lysate was transferred from stimulation plates into the pre-coated antibody plates (384-well) from the Tropix kit. 10 μL of AP conjugate and 20 μL of anti-cAMP antibody was added. The plates were incubated at room temperature while shaking for 1 hour. The plates were then washed 5 times with Wash Buffer, 70 μL per well for each wash. The plates were tapped to dry. 30 μL/well of CSPD/Saphire-II RTU substrate/enhancer solution was added and incubated for 45 min @ RT (shake). Signal for 1 sec/well in a Luminometer.
A further assay has as its target T3, Y1R (Homo sapiens, UniProt P25929).
T3 sequence (P25929 1-384): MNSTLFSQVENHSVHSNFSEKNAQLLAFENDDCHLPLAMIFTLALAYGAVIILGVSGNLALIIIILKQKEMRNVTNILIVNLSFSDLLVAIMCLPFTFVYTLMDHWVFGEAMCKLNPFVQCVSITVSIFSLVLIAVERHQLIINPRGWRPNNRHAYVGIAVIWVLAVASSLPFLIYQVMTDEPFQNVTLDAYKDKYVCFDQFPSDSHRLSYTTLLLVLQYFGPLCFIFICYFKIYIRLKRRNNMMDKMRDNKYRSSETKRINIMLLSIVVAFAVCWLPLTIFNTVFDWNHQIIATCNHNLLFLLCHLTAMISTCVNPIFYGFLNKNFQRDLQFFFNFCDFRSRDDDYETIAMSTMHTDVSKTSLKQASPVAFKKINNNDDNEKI
The experiment in a line: CaFlux Assay (FLIPR), Y1R.

Sequence of Y4R (P50391 whole entry): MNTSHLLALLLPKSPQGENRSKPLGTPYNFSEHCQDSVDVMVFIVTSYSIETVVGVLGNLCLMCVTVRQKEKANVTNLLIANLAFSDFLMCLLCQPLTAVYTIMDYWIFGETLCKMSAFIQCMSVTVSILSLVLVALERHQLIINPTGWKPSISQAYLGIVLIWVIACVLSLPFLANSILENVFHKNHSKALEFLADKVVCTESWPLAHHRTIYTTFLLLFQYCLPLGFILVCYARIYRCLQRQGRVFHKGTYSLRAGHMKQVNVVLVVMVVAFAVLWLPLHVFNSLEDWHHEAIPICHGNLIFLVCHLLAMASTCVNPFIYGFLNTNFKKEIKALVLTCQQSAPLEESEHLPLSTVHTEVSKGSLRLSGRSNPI

With `CCCC(=O)NCCCC[C@H](NC(=O)[C@@H](NC(C)=O)[C@@H](C)CC)C(=O)N1CCN(c2ccc3ncn(CC(=O)N[C@@H](CCCNC(=N)N)C(=O)N[C@@H](Cc4c[nH]cn4)C(=O)N[C@@H](Cc4ccc(O)cc4)C(=O)N[C@@H](CC(C)C)C(=O)N[C@@H](CC(N)=O)C(=O)N[C@@H](Cc4c[nH]c5ccccc45)C(=O)N[C@H](C(=O)N[C@H](C(=O)N[C@@H](CCCNC(=N)N)C(=O)N[C@@H](CCC(N)=O)C(=O)N(C)[C@@H](CCCNC(=N)N)C(=O)N[C@@H](Cc4ccc(O)cc4)C(N)=O)[C@@H](C)O)C(C)C)c(=O)c3c2)CC1` [Example 5], the EC50 on hNPY2R [1] was 0.18 nM; on Y4R, 31600 nM; at Y5R it was 24900 nM; at hNPY2R [2] it was 0.39 nM; at Y1R, above 5000 nM.
The like results for `CCCCCCCC(=O)NCCCC[C@H](NC(=O)[C@@H](NC(C)=O)[C@@H](C)CC)C(=O)N1CCN(c2ccc3ncn(CC(=O)N[C@@H](CCCNC(=N)N)C(=O)N[C@@H](Cc4c[nH]cn4)C(=O)N[C@@H](Cc4ccc(O)cc4)C(=O)N[C@@H](CC(C)C)C(=O)N[C@@H](CC(N)=O)C(=O)N[C@@H](Cc4c[nH]c5ccccc45)C(=O)N[C@H](C(=O)N[C@H](C(=O)N[C@@H](CCCNC(=N)N)C(=O)N[C@@H](CCC(N)=O)C(=O)N(C)[C@@H](CCCNC(=N)N)C(=O)N[C@@H](Cc4ccc(O)cc4)C(N)=O)[C@@H](C)O)C(C)C)c(=O)c3c2)CC1` [Example 6] were, in that order, 1.45 nM, 2470 nM, 99900 nM, 1.7 nM and 5200 nM.
For `CCCCCCCCCCCC(=O)NCCCC[C@H](NC(=O)[C@@H](NC(C)=O)[C@@H](C)CC)C(=O)N1CCN(c2ccc3ncn(CC(=O)N[C@@H](CCCNC(=N)N)C(=O)N[C@@H](Cc4c[nH]cn4)C(=O)N[C@@H](Cc4ccc(O)cc4)C(=O)N[C@@H](CC(C)C)C(=O)N[C@@H](CC(N)=O)C(=O)N[C@@H](Cc4c[nH]c5ccccc45)C(=O)N[C@H](C(=O)N[C@H](C(=O)N[C@@H](CCCNC(=N)N)C(=O)N[C@@H](CCC(N)=O)C(=O)N(C)[C@@H](CCCNC(=N)N)C(=O)N[C@@H](Cc4ccc(O)cc4)C(N)=O)[C@@H](C)O)C(C)C)c(=O)c3c2)CC1` [Example 7], in that order: 4.7 nM, 14500 nM, 12800 nM, 5.4 nM and 6430 nM.
For `CCCCCCCCCCCC(=O)NCCCCCC(=O)NCCCC[C@H](NC(=O)[C@@H](N)[C@@H](C)CC)C(=O)N1CCN(c2ccc3ncn(CC(=O)N[C@@H](CCCNC(=N)N)C(=O)N[C@@H](Cc4c[nH]cn4)C(=O)N[C@@H](Cc4ccc(O)cc4)C(=O)N[C@@H](CC(C)C)C(=O)N[C@@H](CC(N)=O)C(=O)N[C@@H](Cc4c[nH]c5ccccc45)C(=O)N[C@H](C(=O)N[C@H](C(=O)N[C@@H](CCCNC(=N)N)C(=O)N[C@@H](CCC(N)=O)C(=O)N(C)[C@@H](CCCNC(=N)N)C(=O)N[C@@H](Cc4ccc(O)cc4)C(N)=O)[C@@H](C)O)C(C)C)c(=O)c3c2)CC1` [Example 9], in that order: 0.031 nM, 2450 nM, 3790 nM, 3.5 nM and above 5000 nM.
`CCCCCCCCCCCC(=O)NCCC(=O)NCCCC[C@H](NC(=O)[C@@H](N)[C@@H](C)CC)C(=O)N1CCN(c2ccc3ncn(CC(=O)N[C@@H](CCCNC(=N)N)C(=O)N[C@@H](Cc4c[nH]cn4)C(=O)N[C@@H](Cc4ccc(O)cc4)C(=O)N[C@@H](CC(C)C)C(=O)N[C@@H](CC(N)=O)C(=O)N[C@@H](Cc4c[nH]c5ccccc45)C(=O)N[C@H](C(=O)N[C@H](C(=O)N[C@@H](CCCNC(=N)N)C(=O)N[C@@H](CCC(N)=O)C(=O)N(C)[C@@H](CCCNC(=N)N)C(=O)N[C@@H](Cc4ccc(O)cc4)C(N)=O)[C@@H](C)O)C(C)C)c(=O)c3c2)CC1` [Example 10]: the EC50 at hNPY2R [1] is 0.016 nM; on Y4R, 3510 nM; at Y5R it was 4740 nM; at hNPY2R [2], 5.2 nM; at Y1R, above 5000 nM.
For the compound `CCCCCCCCCCCC(=O)N[C@@H](CCC(=O)O)C(=O)NCCCC[C@H](NC(=O)[C@@H](N)[C@@H](C)CC)C(=O)N1CCN(c2ccc3ncn(CC(=O)N[C@@H](CCCNC(=N)N)C(=O)N[C@@H](Cc4c[nH]cn4)C(=O)N[C@@H](Cc4ccc(O)cc4)C(=O)N[C@@H](CC(C)C)C(=O)N[C@@H](CC(N)=O)C(=O)N[C@@H](Cc4c[nH]c5ccccc45)C(=O)N[C@H](C(=O)N[C@H](C(=O)N[C@@H](CCCNC(=N)N)C(=O)N[C@@H](CCC(N)=O)C(=O)N(C)[C@@H](CCCNC(=N)N)C(=O)N[C@@H](Cc4ccc(O)cc4)C(N)=O)[C@@H](C)O)C(C)C)c(=O)c3c2)CC1` [Example 11], the EC50 at hNPY2R [1] is 0.026 nM; on Y4R, 2430 nM; on Y5R, 3550 nM; at hNPY2R [2], 3.6 nM; at Y1R it was above 5000 nM.
For `CCCCCCCCCCCCCCCC(=O)NCCCC[C@H](NC(=O)[C@@H](NC(C)=O)[C@@H](C)CC)C(=O)N1CCN(c2ccc3ncn(CC(=O)N[C@@H](CCCNC(=N)N)C(=O)N[C@@H](Cc4c[nH]cn4)C(=O)N[C@@H](Cc4ccc(O)cc4)C(=O)N[C@@H](CC(C)C)C(=O)N[C@@H](CC(N)=O)C(=O)N[C@@H](Cc4c[nH]c5ccccc45)C(=O)N[C@H](C(=O)N[C@H](C(=O)N[C@@H](CCCNC(=N)N)C(=O)N[C@@H](CCC(N)=O)C(=O)N(C)[C@@H](CCCNC(=N)N)C(=O)N[C@@H](Cc4ccc(O)cc4)C(N)=O)[C@@H](C)O)C(C)C)c(=O)c3c2)CC1` [Example 13], in that order: 1.31 nM, 32200 nM, 9380 nM, 1.2 nM and 29200 nM.
The like results for `CCCCCCCCCCCCCCCC(=O)NCCCC[C@H](NC(=O)[C@@H](N)[C@@H](C)CC)C(=O)N1CCN(c2ccc3ncn(CC(=O)N[C@@H](CCCNC(=N)N)C(=O)N[C@@H](Cc4c[nH]cn4)C(=O)N[C@@H](Cc4ccc(O)cc4)C(=O)N[C@@H](CC(C)C)C(=O)N[C@@H](CC(N)=O)C(=O)N[C@@H](Cc4c[nH]c5ccccc45)C(=O)N[C@H](C(=O)N[C@H](C(=O)N[C@@H](CCCNC(=N)N)C(=O)N[C@@H](CCC(N)=O)C(=O)N(C)[C@@H](CCCNC(=N)N)C(=O)N[C@@H](Cc4ccc(O)cc4)C(N)=O)[C@@H](C)O)C(C)C)c(=O)c3c2)CC1` [Example 14] were, in that order, 0.73 nM, above 5000 nM, 12700 nM, 1 nM and above 5000 nM.
Turning to `CCCCCCCCCCCCCCCC(=O)NCCC(=O)N[C@@H](CCC(=O)O)C(=O)NCCCC[C@H](NC(=O)[C@@H](N)[C@@H](C)CC)C(=O)N1CCN(c2ccc3ncn(CC(=O)N[C@@H](CCCNC(=N)N)C(=O)N[C@@H](Cc4c[nH]cn4)C(=O)N[C@@H](Cc4ccc(O)cc4)C(=O)N[C@@H](CC(C)C)C(=O)N[C@@H](CC(N)=O)C(=O)N[C@@H](Cc4c[nH]c5ccccc45)C(=O)N[C@H](C(=O)N[C@H](C(=O)N[C@@H](CCCNC(=N)N)C(=O)N[C@@H](CCC(N)=O)C(=O)N(C)[C@@H](CCCNC(=N)N)C(=O)N[C@@H](Cc4ccc(O)cc4)C(N)=O)[C@@H](C)O)C(C)C)c(=O)c3c2)CC1` [Example 22], the Emax on Y5R (read-out: Y5R FLIPR, percentage in parentheses under the EC50) worked out at 70%.

The record behind these values is patent publication US20100179093A1, “Neoropeptide-2-Receptor (Y-2R) Agonists” (priority 2008, published 2010).
